The subject of one series is HepG2. Briefly: Cytotoxicity against human HepG2 cells assessed as […] cell viability at 50 uM measured after 24 hrs by MTT assay relative to control. It is filed as cell-based. As to conditions: hepg2, 24 h. Background: Tetrazolium assays rely on reduction of a dye to a coloured formazan, in cell work by metabolically active cells.
The target in series [1] is T1, Tyrosine-protein phosphatase non-receptor type 1 (Homo sapiens, UniProt P18031).
T1 sequence (P18031 whole entry): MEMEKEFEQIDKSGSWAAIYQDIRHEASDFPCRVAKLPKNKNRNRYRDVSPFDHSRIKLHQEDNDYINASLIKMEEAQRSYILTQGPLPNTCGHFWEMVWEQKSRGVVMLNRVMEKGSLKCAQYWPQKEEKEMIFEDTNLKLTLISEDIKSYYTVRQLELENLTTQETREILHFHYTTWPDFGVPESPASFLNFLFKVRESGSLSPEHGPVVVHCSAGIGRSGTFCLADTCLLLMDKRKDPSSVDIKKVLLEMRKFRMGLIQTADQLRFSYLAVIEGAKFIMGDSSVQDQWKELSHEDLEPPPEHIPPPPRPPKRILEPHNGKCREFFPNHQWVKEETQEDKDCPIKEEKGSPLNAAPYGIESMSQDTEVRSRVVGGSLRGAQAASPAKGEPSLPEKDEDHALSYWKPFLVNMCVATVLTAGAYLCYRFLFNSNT
Briefly: Inhibition of recombinant human PTP1B (1 to 322 residues) expressed in Escherichia coli using pNPP as substrate.

Series [2] addresses T2, Tyrosine-protein phosphatase non-receptor type 1 (Homo sapiens) (UniProt P18031).
T2 sequence (whole entry): T1 sequence (P18031 whole entry)
Briefly: Inhibition of recombinant human PTP1B (1 to 322 residues) expressed in Escherichia coli at 1 uM using IR5 (1142 to 1153 residues) as substrate incubated for 30 mins by spectrophotometry analysis relative to control.

The next series is filed under the species Homo sapiens. Briefly: Selectivity index, ratio of IC50 for recombinant human TC-PTP (2 to 315 residues) to IC50 for recombinant human PTP1B (1 to 322 residues) expressed in Escherichia coli.
In series [3] the target is T3, Tyrosine-protein phosphatase non-receptor type 2 (Homo sapiens, UniProt P17706).
T3 sequence (P17706 whole entry): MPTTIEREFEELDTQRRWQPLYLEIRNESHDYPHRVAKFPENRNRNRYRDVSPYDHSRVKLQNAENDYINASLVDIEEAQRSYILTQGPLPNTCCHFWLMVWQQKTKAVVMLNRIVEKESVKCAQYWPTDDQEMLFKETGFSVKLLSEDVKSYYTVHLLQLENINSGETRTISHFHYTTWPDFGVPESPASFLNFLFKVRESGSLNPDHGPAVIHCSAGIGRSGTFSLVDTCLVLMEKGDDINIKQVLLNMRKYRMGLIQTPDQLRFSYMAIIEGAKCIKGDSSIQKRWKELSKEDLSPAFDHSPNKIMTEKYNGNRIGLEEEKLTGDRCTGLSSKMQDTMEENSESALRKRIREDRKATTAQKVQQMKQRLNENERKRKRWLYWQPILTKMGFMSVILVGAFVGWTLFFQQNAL
Briefly: Inhibition of recombinant human TC-PTP (2 to 315 residues) expressed in Escherichia coli using pNPP as substrate.

Series [4] can be described thus: Stability of the compound measured up to 5 days. It counts as physicochemical. The following applies: 120 h; time <=5 day.
The nature of series [5]: Stability of the compound measured after 2 months at 4 degreeC. The following applies: 1460 h. It counts as physicochemical.
Series [6] is described as follows: Stability of the compound measured after 5 days. As to conditions: 120 h; time 5 day. It is filed as physicochemical.
Series [7] concerns the target T1, Tyrosine-protein phosphatase non-receptor type 1. Briefly: Inhibition of PTP1B (unknown origin).
The next series deals with C2C12. Briefly: Induction of glucose uptake in mouse C2C12 cells at 2 uM pretreated with insulin for 30 mins followed by compound treatment for 90 mins by fluorescence microplate reader assay relative to control. It is filed as functional. The following applies: 1.5 h.

Consider `Cc1cc2nc(C)c3cccn3c2cc1C`, for which, in the series with HepG2, the Activity is listed as greater than 90%. For the same compound, the IC50 (as a rule, the midpoint of a concentration-inhibition curve) in series [1] is greater than 10000 nM.

As to `Cc1cc2c(cc1C)-n1cccc1C(C)N2` (stereo not drawn), the Activity in the series with HepG2 was greater than 90%. In addition, the inhibition (commonly the relative decrease from the control value, in per cent) in [2] is 56%.

Turning to `CC1Nc2ccc(Cl)cc2-n2cccc21` (stereo not drawn), in the series on HepG2, the Activity is greater than 90%. For the same compound, the IC50 in series [1] is 450 nM; in series [3] it was greater than 5000 nM. The inhibition in [2] was determined as 56%. In the series listed under Homo sapiens, the Ratio IC50 was greater than 11.1.

On to `CC1Nc2ccccc2-n2cccc21` (stereo not drawn), for which the Stabilty entry in [4] is listed as “Stable”; in [5] it was “Stable”; in series [6] it was “Unstable”. Also, the Activity in the series with HepG2 is given as greater than 90%. Also, in series [1], the IC50 was found to be 410 nM. For the same compound, in series [2], the inhibition came to 56%.

Take `COc1ccc2c(c1)nc(C)c1cccn12`: the Activity in the series on HepG2 is listed as greater than 90%. Moreover, the IC50 in [1] is greater than 10000 nM.

As for `Cc1c2cccn2c2cc(Cl)ccc2[n+]1C.[I-]`, the Activity in the series on HepG2 is greater than 90%. Besides, the results for the IC50 in [1] and in [3] were 830 nM and greater than 5000 nM, respectively. The inhibition in series [2] came out at 22%. In addition, the Ratio IC50 in the series listed under Homo sapiens is greater than 6.02.

Regarding `COc1ccc2c(c1)NC(C)c1cccn1-2` (stereo not drawn), the Activity in the series on HepG2 is listed as greater than 90%. The IC50 in [1] came to 1390 nM. Besides, the inhibition in series [2] was 56%.

In the case of `Cc1c2cccn2c2ccc(C(F)(F)F)cc2[n+]1C.[I-]`, the Activity in the series with HepG2 is greater than 90%. The IC50 in [1] amounted to 580 nM; in [3], 410 nM. Besides, in series [2], the inhibition turned out to be 22%. The Ratio IC50 in the series listed under Homo sapiens stood at 0.71.

For the compound `C=C(C)[C@@H]1CC[C@]2(C(=O)O)CC[C@]3(C)[C@H](CC[C@@H]4[C@@]5(C)CC[C@H](O)C(C)(C)[C@@H]5CC[C@]43C)[C@@H]12` [BETULINIC ACID], in series [7], half-maximal inhibition (IC50) was put at 1500 nM.

For the compound `Cc1c2cccn2c2ccccc2[n+]1C.[I-]`, in the series on HepG2, the Activity is recorded as greater than 90%. For the same compound, the IC50 in series [1] came out at 320 nM. For the same compound, the inhibition in series [2] worked out at 22%.

Regarding `Cc1nc2ccc(Cl)cc2n2cccc12`, the Activity with HepG2 is greater than 90%. Also, the 50% inhibitory concentration (IC50) is 600 nM in [1] and greater than 25000 nM in series [3]. For the same compound, in the series filed under Homo sapiens, the Ratio IC50 is greater than 41.

For `CC1Nc2cc(C(F)(F)F)ccc2-n2cccc21` (stereo not drawn), the Activity in the series with HepG2 was greater than 90%. Also, in series [2], the inhibition turned out to be 56%.

As for `Cc1nc2cc(C(F)(F)F)ccc2n2cccc12`, in the series on HepG2, the Activity was greater than 90%. Also, the 50% inhibitory concentration (IC50) in series [1] is greater than 10000 nM.

Take `c1ccc(Cc2nc3ccccc3n3cccc23)cc1`: half-maximal inhibition in series [7] (IC50) required 240 nM.

`CC1c2cccn2-c2ccccc2N1C` (stereo not drawn): in the series on HepG2, the Activity is on record as greater than 90%. In addition, the values for the IC50 in series [1] and in series [3] were 510 nM and 500 nM, respectively. Besides, the inhibition in [2] was 56%. For the same compound, the Ratio IC50 in the series listed under Homo sapiens is 0.98.

In the case of `CC1Nc2cc(Cl)c(Cl)cc2-n2cccc21` (stereo not drawn), the Activity is reported as greater than 90% in the series on HepG2 and 150% in the series on C2C12. The IC50 was 950 nM in series [1] and greater than 5000 nM in series [3]. Moreover, the inhibition in [2] was determined as 56%. In the series filed under Homo sapiens, the Ratio IC50 was greater than 5.26.

On to `COc1ccc2c(c1)[n+](C)c(C)c1cccn12.[I-]`, for which the Activity in the series on HepG2 was greater than 90%. Also, in [1], the IC50 is greater than 10000 nM. Also, the inhibition in series [2] is 22%.

As for `Cc1cc2c(cc1C)[n+](C)c(C)c1cccn12.[I-]`, the Activity in the series on HepG2 is greater than 90%. For the same compound, the inhibition in [2] stood at 22%.

Turning to `CC1(C)CC[C@]2(C(=O)O)CC[C@@H]3C(=CC[C@H]4[C@H]3CC[C@@H]3[C@@H]4CC[C@H](O[C@@H]4O[C@H](CO)[C@@H](O)[C@H](O)[C@H]4O)C3(C)C)[C@@H]2C1`, in [7], the IC50 was determined as 1400 nM.

Take `Cc1nc2cc(Cl)c(Cl)cc2n2cccc12`: the Activity in the series with HepG2 is listed as greater than 90%. Besides, the values for the IC50 in series [1] and in series [3] were 570 nM and greater than 25000 nM, respectively. Further, the Ratio IC50 in the series listed under Homo sapiens was greater than 43.

In the case of `Cc1ccc2c(c1)[n+](C)c(C)c1cccn12.[I-]`, the Activity in the series with HepG2 is on record as greater than 90%. In addition, in [1], the IC50 is greater than 10000 nM. In addition, the inhibition in [2] came to 22%.

As for `Cc1nc2ccccc2n2cccc12`, in the series with HepG2, the Activity is recorded as greater than 90%. Further, the Ratio IC50 in the series listed under Homo sapiens turned out to be 4. Further, the IC50 in series [3] was determined as 3950 nM.

In series [7], `CCCCCCS(=O)(=O)NC(=O)c1ccc(CSCc2ccc(-c3ccccc3)cc2)cc1` yielded an IC50 of 250 nM.

For the compound `CCCC[n+]1c(C)c2cccn2c2ccccc21.[I-]`, in the series with HepG2, the Activity was greater than 90%. In addition, the IC50 in series [1] came out at 1910 nM. Moreover, the inhibition in series [2] was determined as 22%.

As to `C=C(C)[C@@H]1CC[C@]2(C)CC[C@]3(C)[C@H](CC[C@@H]4[C@@]5(C)CC[C@H](O)C(C)(C)[C@@H]5CC[C@]43C)[C@@H]12` [LUPEOL], the IC50 in series [7] came out at 560 nM.

As to `Cc1ccc2c(c1)NC(C)c1cccn1-2` (stereo not drawn), in series [2], the inhibition amounted to 56%.

For `Cc1ccc2c(c1)nc(C)c1cccn12`, the Activity with HepG2 is given as greater than 90%. Further, the IC50 in [1] was greater than 10000 nM.

The values are drawn from ChEMBL document CHEMBL4811318, “Pyrrolo[1,2-a]quinoxal-5-inium salts and 4,5-dihydropyrrolo[1,2-a]quinoxalines: Synthesis, activity and computational docking for protein tyrosine phosphatase 1B” (Bioorg Med Chem, 2021).
